Laboratory results published in patent US4820824A, “Mitomaycin compounds” (Kyowa Hakko Kogyo Kabushiki Kaisha, priority 1986, dated 1989).
Converted amounts (≈) assume the structure as drawn. Like-named read-outs stand apart in the source and are kept apart here.

Columns and labels:
[1] = test system: Proteus vulgaris ATCC6897; assay: Antibacterial activity, agar dilution method (MIC), Proteus vulgaris; assay type: cell-based; settings: pH 7.0, read-out: Minimum inhibitory concentration (MIC), PV
Protocol: (§1) Antibacterial activities of Compounds (I) against various microorganisms are shown in the following Table 5, in which the minimum inhibitory concentration MIC (μg/ml) was measured by the agar dilution method at a pH of 7.0.
(§2) In this table, the following abbreviations are used: SF-Streptococcus faecalis ATCC 10541; SA-Staphylococcus aureus ATCC6538P; BS-Bacillus subtilis 10707; PV-Proteus vulgaris ATCC6897; KP-Klebsiella pneumoniae ATCC10031.

[2] = test system: Streptococcus faecalis ATCC 10541; assay: Antibacterial activity, agar dilution method (MIC), Streptococcus faecalis; assay type: cell-based; settings: Enterococcus faecalis, ATCC10541, pH 7.0, read-out: Minimum inhibitory concentration (MIC), SF
Protocol: as §1, §2

[3] = test system: Bacillus subtilis 10707; assay: Antibacterial activity, agar dilution method (MIC), Bacillus subtilis; assay type: cell-based; settings: pH 7.0, read-out: Minimum inhibitory concentration (MIC), BS
Protocol: as §1, §2

[4] = test system: Staphylococcus aureus ATCC6538P; assay: Antibacterial activity, agar dilution method (MIC), Staphylococcus aureus; assay type: cell-based; settings: pH 7.0, read-out: Minimum inhibitory concentration (MIC), SA
Protocol: as §1, §2

[5] = test system: Klebsiella pneumoniae ATCC10031; assay: Antibacterial activity, agar dilution method (MIC), Klebsiella pneumoniae; assay type: cell-based; settings: pH 7.0, read-out: Minimum inhibitory concentration (MIC), KP
Protocol: as §1, §2

[6] = Acute toxicity; settings: mouse, in vivo, ip; ddy mice, single abdominal administration, 14 days observation, Behrens-Korber's method
From the text: (§3) Certain Compounds (I) and Sarcoma 180 solid tumour were used to determine, on each occasion, antitumour activity (ED50), acutee toxicity (LD50) and effect upon peripherical leucocytes (WBC4000), as shown Table 6.
The test compound was abdominally administered once to ddy mice, each group consisting of 5 animals.

[7] = test system: Sarcoma 180 solid tumour; assay: Antitumour activity against Sarcoma 180 solid tumour; assay type: in vivo, ddy male mouse; settings: for ED50: Mus musculus, Sarcoma-180, iv, 168 h; for C.I. (LD50/ED50): chemotherapeutic index LD50/ED50, Sarcoma 180, ddy mice
From the text: as §3
5×10^6 cells of Sarcoma 180 solid tumour were abdominally implanted into a ddy mouce. 7 days after this, the cells were collected from the ascites fluid. The cells were washed once with physiological saline under sterile conditions and suspended in physiological saline to obtain a cell suspension containing 5×10^7 cells/ml, of which 0.1 ml was implanted into a ddy male mouce (body weight 20±2 g) under the skin of the right armpit. The test compound was dissolved in physiological saline or the same solution containing Tween 80. 24 hours after implantation of the tumour cells, 0.1-0.2 ml of the solution containing the test compound was administered to the tail vein of each animal in the test group consisting of 5 animals. 7 days after the implantation, the major axis (a) and minor axis (b) of the tumour were measured to calculate the volume of the tumour as ("a"×"b^2 ")/2. The antitumour effect was indicated by T/C which is the ratio of the tumour volume in the test animals to the corresponding volume of the control (untreated) animals.
ED50 denotes the dosage capable of decreasing the volume of Sarcoma 180 solid tumour to 50% of the corresponding volume of the control animals. T/C ratios and the dose were respectively plotted on the ordinate using an arithmetic scale and on the abscissa using a logarithmic scale, the relationship between the dosage and the T/C ratio being converted to a straight line by the least squares method. From the straight tropic line thus-obtained, the dosage corresponding to a T/C=0.5 viz. ED50 was determined.

[8] = test system: peripheral leucocytes; assay: Effect upon peripheral leucocytes (bone marrow toxicity); assay type: in vivo, male mice (ddy strain); settings: minimum dose decreasing peripheral leucocytes to 4000/mm^3; tumour-bearing ddy mice, intraperitoneal, blood 4 days later
Protocol: as §3
of peripheral leucocytes to 4000/mm^3.
Sarcoma 180 solid tumour cells (5×10^6) were subcutaneously implanted under the skin of the right armpit of each mouse (body weight 20±2 g) of a group consisting of 5 male mice (ddy strain). 24 hours after this, a test compound was intraperitoneally administered to each animal. 4 days later, blood (0.02 ml) was collected from the suborbital plexus vein of each tumour-carrying animal. The collected sample of blood was dispersed in 9.98 ml of Cellkit Seven solution. One drop of saponin solution was added to the sample to dissolve erythrocytes and then a microcell counter was used to measure the number of leucocytes. On graph paper, the number of leucocytes was plotted on the ordinate using an arithmetic scale, and the dosage was plotted on the abscissa using a logarithmic scale to show the relationship of the dosage to the number of peripherical leucocytes, from which the value of WBC4000 viz. a value capable of giving 4000 peripheral leucocytes per mm^3 (about half of the corresponding value in normal mice) was obtained.

[9] = Water-solubility; assay type: physicochemical
[10] = dose giving T/C=0.5 tumour volume, single tail vein administration 24 hours after implantation, measured 7 days after implantation, read-out: ED50

Row | Compound | MIC [1] | MIC [2] | MIC [3] | MIC [4] | MIC [5] | LD50 at 336 h [6] | ED50 [7, 10] | C.I. (LD50/ED50) [7] | WBC4000 [8] | solubility [9] | ED50 [7]
1 | CO[C@@]12[C@H](COC(N)=O)C3=C(C(=O)C(C)=C(N=S(c4ccccc4)c4ccccc4)C3=O)N1C[C@@H]1N[C@@H]12 [Compound 1, 7-demethoxy-7-diphenylsulfiliminomitomycin A] | 0.63 µg/mL (≈ 1.21 µM) | 0.02 µg/mL (≈ 0.0386 µM) | < 0.005 µg/mL | 0.01 µg/mL (≈ 0.0193 µM) | 0.16 µg/mL (≈ 0.309 µM) | – | – | – | – | – | –
2 | CC1=C(N=S(c2ccccc2)c2ccccc2)C(=O)C2=C(C1=O)N1C[C@H]3[C@H](N3C)[C@]1(O)[C@H]2COC(N)=O (stereo partly shown) [Compound 2] | – | 0.78 µg/mL (≈ 1.5 µM) | 0.2 µg/mL (≈ 0.386 µM) | 0.78 µg/mL (≈ 1.5 µM) | 25 µg/mL (≈ 48.2 µM) | > 200 mg/kg | 89.1 mg/kg | > 2.2 | > 200 mg/kg | – | –
3 | C=C1C2=C(C(=O)C(C)=C(N=S(c3ccccc3)c3ccccc3)C2=O)N2C[C@H]3[C@H](N3C)[C@]12O (stereo partly shown) [Compound 3] | – | – | 0.63 µg/mL (≈ 1.38 µM) | – | – | > 200 mg/kg | 132 mg/kg | > 1.5 | > 200 mg/kg | – | –
4 | CO[C@@]12[C@H](COC(N)=O)C3=C(C(=O)C(C)=C(N=S(C)c4ccccc4)C3=O)N1C[C@@H]1N[C@@H]12 (stereo partly shown) [Compound 5, (E)-7-demethoxy-7-methylphenylsulfilimino mitomycin A] | – | – | – | – | – | 15 mg/kg | 2.7 mg/kg | 5.6 | 4.1 mg/kg | – | –
5 | CCS(CC)=NC1=C(C)C(=O)C2=C(C1=O)[C@@H](COC(N)=O)[C@@]1(OC)[C@H]3N[C@H]3CN21 [Compound 6] | 0.039 µg/mL (≈ 0.0923 µM) | 0.078 µg/mL (≈ 0.185 µM) | 0.02 µg/mL (≈ 0.0473 µM) | 0.039 µg/mL (≈ 0.0923 µM) | 0.039 µg/mL (≈ 0.0923 µM) | 9.4 mg/kg | 2.5 mg/kg | 3.8 | 5.6 mg/kg | > 40 mg/mL | –
6 | CCS(CC)=NC1=C(C)C(=O)C2=C(C1=O)[C@H](COC(N)=O)[C@@]1(O)[C@@H]3[C@H](CN21)N3C (stereo partly shown) [Compound 7] | 20 µg/mL (≈ 47.3 µM) | 20 µg/mL (≈ 47.3 µM) | 5 µg/mL (≈ 11.8 µM) | 10 µg/mL (≈ 23.7 µM) | 10 µg/mL (≈ 23.7 µM) | – | – | – | – | – | –
7 | CO[C@@]12[C@H](COC(N)=O)C3=C(C(=O)C(C)=C(N=P(c4ccccc4)(c4ccccc4)c4ccccc4)C3=O)N1C[C@@H]1N[C@@H]12 [Compound 9, 7-demethoxy-7-triphenylphosphiniminomitomycin A] | 25 µg/mL (≈ 42 µM) | 13 µg/mL (≈ 21.9 µM) | 3.1 µg/mL (≈ 5.21 µM) | 13 µg/mL (≈ 21.9 µM) | 13 µg/mL (≈ 21.9 µM) | > 100 mg/kg | – | ≥ 1.0 | > 100 mg/kg | – | 100 mg/kg
